Data reported in patent publication US9469637B2, “Nitrogenated heterocyclic compound” (Takeda Pharmaceutical Company Limited, priority 2012, dated 2016).

These molecules were tested against T1, Human PDE2A3 enzyme (Homo sapiens, UniProt O00408) (assay: PDE2A3 enzyme inhibition, SPA (Scintillation Proximity Assay)). Conditions: 1 μM compound, substrate [3H] cGMP, read-out: Inhibition Rate (%) (1 μM).
T1 construct: generated from Sf9 cells transfected with the full-length gene; His-tag; made in house; host or cells: Sf9 insect cells
T1 sequence (O00408 whole entry): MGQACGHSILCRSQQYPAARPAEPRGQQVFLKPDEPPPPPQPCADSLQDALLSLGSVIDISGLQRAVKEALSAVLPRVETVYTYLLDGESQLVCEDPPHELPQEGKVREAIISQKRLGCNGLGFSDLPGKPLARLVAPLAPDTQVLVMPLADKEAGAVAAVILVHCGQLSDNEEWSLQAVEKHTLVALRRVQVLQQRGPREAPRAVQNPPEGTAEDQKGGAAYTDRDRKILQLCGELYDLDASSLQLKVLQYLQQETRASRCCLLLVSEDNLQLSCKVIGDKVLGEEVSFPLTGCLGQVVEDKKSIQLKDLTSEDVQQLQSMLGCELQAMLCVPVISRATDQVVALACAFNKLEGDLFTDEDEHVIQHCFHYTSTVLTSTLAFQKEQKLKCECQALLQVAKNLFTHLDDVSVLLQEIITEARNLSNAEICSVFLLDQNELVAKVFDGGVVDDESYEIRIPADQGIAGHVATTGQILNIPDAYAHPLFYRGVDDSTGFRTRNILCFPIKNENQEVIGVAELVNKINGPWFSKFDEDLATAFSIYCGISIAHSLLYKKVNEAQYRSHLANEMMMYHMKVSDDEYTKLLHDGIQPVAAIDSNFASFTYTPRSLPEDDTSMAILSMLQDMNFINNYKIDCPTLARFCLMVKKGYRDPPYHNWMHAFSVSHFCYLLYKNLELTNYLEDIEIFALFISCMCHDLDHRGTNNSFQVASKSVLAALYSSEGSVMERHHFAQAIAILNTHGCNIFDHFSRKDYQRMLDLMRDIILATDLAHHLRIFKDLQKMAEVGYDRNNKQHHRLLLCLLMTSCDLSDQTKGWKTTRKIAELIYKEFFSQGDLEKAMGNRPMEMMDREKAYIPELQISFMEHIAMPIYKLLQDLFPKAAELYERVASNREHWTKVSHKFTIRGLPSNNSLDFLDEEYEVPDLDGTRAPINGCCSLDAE
Type: biochemical
Method: Human PDE2A3 enzyme was generated from Sf9 cells transfected with the full-length gene. The extracted enzyme from Sf9 cells was purified by His-tag affinity column and gel filtration. The enzyme was stored at −70° C. until use. PDE activity was measured using a SPA (Scintillation Proximity Assay) (GE Healthcare). To evaluate the inhibitory activity, 10 μl of serial diluted compounds were incubated with 20 μl of PDE enzyme in assay buffer (50 mM HEPES-NaOH, 8.3 mM MgCl2, 1.7 mM EGTA, 0.1% BSA (pH 7.4)) for 30 min. at room temperature. Final concentration of DMSO in the assay was 1 percent as compounds were tested in duplicate in 96-well half-area plates (Corning) or 384-well OptiPlate (PerkinElmer). To start the reaction, 10 μl of substrate [^3H] cGMP (77 nM, PerkinElmer) was added for a final assay volume of 40 μl. After 60 min incubation at room temperature, 20 μl of 20 mg/ml yttrium SPA beads containing Zinc sulphate was added to terminate the PDE reaction. […] Inhibition rate was calculated on the basis of 0% control wells with enzyme and DMSO, and 100% control wells without enzyme.

| Structure (SMILES) | inhibition at 1 µM |
| --- | --- |
| CCC(NC(=O)N1CC(=O)Nc2ccc(OC)nc21)c1ccc(OC(F)(F)F)cc1 (stereo not drawn) [Example 52, 6-methoxy-2-oxo-N-(1-(4-(trifluoromethoxy)phenyl)propyl)-2,3-dihydropyrido[2,3-b]pyrazine-4(1H)-carboxamide] | 93% |
| CC(C)(O)C(NC(=O)N1CC(=O)Nc2cc(C3CC3)cnc21)c1ccc(OC(F)(F)F)c(F)c1 (stereo not drawn) [Example 76, Optically active 7-cyclopropyl-N-(1-(3-fluoro-4-(trifluoromethoxy)phenyl)-2-hydroxy-2-methylpropyl)-2-oxo-2,3-dihydropyrido[2,3-b]pyrazine-4(1H)-carboxamide] | 100% |
| COC[C@@H](NC(=O)N1CC(=O)Nc2ccc(-n3cccn3)nc21)c1ccc(OC(F)(F)F)c(F)c1 [Example 117, N-((1S)-1-(3-fluoro-4-(trifluoromethoxy)phenyl)-2-methoxyethyl)-2-oxo-6-(1H-pyrazol-1-yl)-2,3-dihydropyrido[2,3-b]pyrazine-4(1H)-carboxamide] | 99% |
| COC[C@@H](NC(=O)N1CC(=O)Nc2ccc(-n3cccn3)nc21)c1ccc(OC(F)(F)F)cc1 [Example 130, N-((1S)-2-methoxy-1-(4-(trifluoromethoxy)phenyl)ethyl)-2-oxo-6-(1H-pyrazol-1-yl)-2,3-dihydropyrido[2,3-b]pyrazine-4(1H)-carboxamide] | 99% |
| COCC(NC(=O)N1CC(=O)Nc2cc(C)cnc21)c1ccc(-n2cccn2)cc1 (stereo not drawn) [Example 134, N-(2-methoxy-1-(4-(H-pyrazol-1-yl)phenyl)ethyl)-7-methyl-2-oxo-2,3-dihydropyrido[2,3-b]pyrazine-4(1H)-carboxamide] | 97% |
| COCC(NC(=O)N1CC(=O)Nc2cc(C)cnc21)c1ccc(-n2cccn2)c(F)c1 (stereo not drawn) [Example 143, N-(1-(3-fluoro-4-(1H-pyrazol-1-yl)phenyl)-2-methoxyethyl)-7-methyl-2-oxo-2,3-dihydropyrido[2,3-b]pyrazine-4(1H)-carboxamide] | 98% |
| Cc1cnc2c(c1)NC(=O)CN2C(=O)NC1(c2ccc(OC(F)(F)F)cc2)CC1 [Example 152, 7-methyl-2-oxo-N-(1-(4-(trifluoromethoxy)phenyl)cyclopropyl)-2,3-dihydropyrido[2,3-b]pyrazine-4(1H)-carboxamide] | 97% |
| CCC(NC(=O)N1CC(=O)Nc2cc(C)cnc21)c1ccc(-n2cccn2)s1 (stereo not drawn) [Example 162, 7-methyl-2-oxo-N-(1-(5-(1H-pyrazol-1-yl)-2-thienyl)propyl)-2,3-dihydropyrido[2,3-b]pyrazine-4(1H)-carboxamide] | 97% |
| Cc1cnc2c(c1)NC(=O)CN2C(=O)NC(c1ccc(OC(F)(F)F)cc1)C1CCCO1 (stereo not drawn) [Example 200, 7-methyl-2-oxo-N-(tetrahydrofuran-2-yl(4-(trifluoromethoxy)phenyl)methyl)-2,3-dihydropyrido[2,3-b]pyrazine-4(1H)-carboxamide] | 100% |
| COCC(NC(=O)N1CC(=O)Nc2ccc(-c3ccn(C)n3)nc21)c1ccc(OC(F)(F)F)cc1 (stereo not drawn) [Example 222, N-(2-methoxy-1-(4-(trifluoromethoxy)phenyl)ethyl)-6-(1-methyl-1H-pyrazol-3-yl)-2-oxo-2,3-dihydropyrido[2,3-b]pyrazine-4(1H)-carboxamide] | 99% |
| COc1cc2c(nc1C)N(C(=O)N[C@@H](c1ccc(OC(F)(F)F)cc1)C(C)(C)O)CC(=O)N2 [Example 253, N-((1S)-2-hydroxy-2-methyl-1-(4-(trifluoromethoxy)phenyl)propyl)-7-methoxy-6-methyl-2-oxo-2,3-dihydropyrido[2,3-b]pyrazine-4(1H)-carboxamide] | 100% |
| COc1nc2c(cc1C)NC(=O)CN2C(=O)N[C@@H](c1ccc(OC(F)(F)F)cc1)C(C)(C)O [Example 261, N-((1S)-2-hydroxy-2-methyl-1-(4-(trifluoromethoxy)phenyl)propyl)-6-methoxy-7-methyl-2-oxo-2,3-dihydropyrido[2,3-b]pyrazine-4(1H)-carboxamide] | 100% |
| CC(C)(O)C(NC(=O)N1CC(=O)Nc2cc(C3CC3)cnc21)c1ccc(C(F)(F)F)cc1 (stereo not drawn) [Example 266, Optically active 7-cyclopropyl-N-(2-hydroxy-2-methyl-1-(4-(trifluoromethyl)phenyl)propyl)-2-oxo-2,3-dihydropyrido[2,3-b]pyrazine-4(1H)-carboxamide] | 100% |
| COc1cnc2c(c1)NC(=O)CN2C(=O)NC(c1ccc(C(F)(F)F)cc1)C(C)(C)O (stereo not drawn) [Example 268, Optically active N-(2-hydroxy-2-methyl-1-(4-(trifluoromethyl)phenyl)propyl)-7-methoxy-2-oxo-2,3-dihydropyrido[2,3-b]pyrazine-4(1H)-carboxamide] | 99% |
| Cc1cnc2c(c1)NC(=O)CN2C(=O)NC(c1ccc(OC(F)(F)F)c(F)c1)C(C)(C)O (stereo not drawn) [Example 273, Optically active N-(1-(3-fluoro-4-(trifluoromethoxy)phenyl)-2-hydroxy-2-methylpropyl)-7-methyl-2-oxo-2,3-dihydropyrido[2,3-b]pyrazine-4(1H)-carboxamide] | 98% |
